PubChem BioAssay AID248 (DTP/NCI, 2004)
Where “and” joins values, the source holds several entries; their conditions need not be identical. Equal values may be shown once. Toxic doses and inconclusive results are not listed. Rule as the data show it: active = T/C of 150% or more; inactive = T/C below 125%.

Tested on: L1210 leukemia ip in BDF1 mice, survival T/C
Assay: NCI In Vivo Anticancer Drug Screen. Data for tumor model L1210 Leukemia (intraperitoneal) in B6D2F1 (BDF1) mice
Conditions: endpoint: mean survival time, higher = longer survival
Procedure, shortened: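 Ratio derived from survival: compound-dosed mice over vehicle-dosed mice, all bearing a transplantable tumor.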

[1] = dose: 100.0 mg/kg/injection, schedule: Q01DX001 (ip), vehicle: carboxymethylcellulose (CMC)
[2] = dose: 100.0 mg/kg/injection, schedule: Q04DX002 (ip), vehicle: Klucel (hydroxypropylcellulose) (HPC)
[3] = dose: 200.0 mg/kg/injection, schedule: Q01DX001 (ip), vehicle: carboxymethylcellulose (CMC)
[4] = dose: 200.0 mg/kg/injection, schedule: Q04DX002 (ip), vehicle: Klucel (hydroxypropylcellulose) (HPC)
[5] = dose: 400.0 mg/kg/injection, schedule: Q01DX001 (ip), vehicle: carboxymethylcellulose (CMC)
[6] = dose: 400.0 mg/kg/injection, schedule: Q04DX002 (ip), vehicle: Klucel (hydroxypropylcellulose) (HPC)
[7] = dose: 50.0 mg/kg/injection, schedule: Q01DX009 (ip), vehicle: saline with Tween-80
[8] = dose: 100.0 mg/kg/injection, schedule: Q01DX009 (ip), vehicle: saline with Tween-80
[9] = dose: 100.0 mg/kg/injection, schedule: Q01DX001 (ip), vehicle: saline
[10] = dose: 100.0 mg/kg/injection, schedule: Q04DX003 (ip), vehicle: Klucel (hydroxypropylcellulose) (HPC)
[11] = dose: 200.0 mg/kg/injection, schedule: Q04DX003 (ip), vehicle: Klucel (hydroxypropylcellulose) (HPC)
[12] = dose: 400.0 mg/kg/injection, schedule: Q04DX003 (ip), vehicle: Klucel (hydroxypropylcellulose) (HPC)
[13] = dose: 200.0 mg/kg/injection, schedule: Q01DX009 (ip), vehicle: saline with Tween-80
[14] = dose: 200.0 mg/kg/injection, schedule: Q01DX001 (ip), vehicle: saline
[15] = dose: 400.0 mg/kg/injection, schedule: Q01DX001 (ip), vehicle: saline

Measured: T/C

CSc1ccc(OC(=O)Nc2ccc(Cl)cc2)cc1C
inactive: [1] 89 % of control | dose: 100.0 mg/kg/injection, schedule: Q01DX009 (ip), vehicle: carboxymethylcellulose (CMC) 97 % of control and 100 % of control | [2] 103 % of control | dose: 100.0 mg/kg/injection, schedule: Q04DX002 (ip), vehicle: carboxymethylcellulose (CMC) 106 % of control and 108 % of control | [3] 102 % of control | dose: 200.0 mg/kg/injection, schedule: Q01DX009 (ip), vehicle: carboxymethylcellulose (CMC) 93 % of control and 97 % of control | [4] 98 % of control | dose: 200.0 mg/kg/injection, schedule: Q04DX002 (ip), vehicle: carboxymethylcellulose (CMC) 94 % of control and 108 % of control | [5] 93 % of control | [6] 92 % of control | dose: 400.0 mg/kg/injection, schedule: Q04DX002 (ip), vehicle: carboxymethylcellulose (CMC) 95 % of control and 104 % of control

O=Cc1nccc2c1[nH]c1ccccc12
inactive: dose: 25.0 mg/kg/injection, schedule: Q01DX009 (ip), vehicle: saline with Tween-80 96 % of control | [7] 97 % of control | [8] 86 % of control and 90 % of control

CCOC(=O)CN1CC(C)(C)N(CC(=O)OCC)CC1(C)C
inactive: [1] 93 % of control | [3] 93 % of control | [5] 104 % of control

CC(C)(C)C(=O)c1ccc(-c2ccccc2)cc1
inactive: dose: 100.0 mg/kg/injection, schedule: Q04DX002 (ip), vehicle: other 91 % of control | dose: 200.0 mg/kg/injection, schedule: Q04DX002 (ip), vehicle: other 94 % of control | dose: 400.0 mg/kg/injection, schedule: Q04DX002 (ip), vehicle: other 94 % of control

COc1ccc(NC(=O)CCc2ccc(N3C(N)=NC(N)=NC3(C)C)cc2)cc1S(=O)(=O)F
inactive: dose: 50.0 mg/kg/injection, schedule: Q01DX001 (ip), vehicle: Klucel (hydroxypropylcellulose) (HPC) 95 % of control | dose: 100.0 mg/kg/injection, schedule: Q01DX001 (ip), vehicle: Klucel (hydroxypropylcellulose) (HPC) 106 % of control | dose: 200.0 mg/kg/injection, schedule: Q01DX001 (ip), vehicle: Klucel (hydroxypropylcellulose) (HPC) 98 % of control

CC(C)=CC1C(C(=O)OC2CCN(C)CC2)C1(C)C (configuration not stated)
inactive: dose: 25.0 mg/kg/injection, schedule: Q01DX001 (ip), vehicle: saline 98 % of control | dose: 50.0 mg/kg/injection, schedule: Q01DX001 (ip), vehicle: saline 98 % of control | [9] 101 % of control and 107 % of control

Cc1cc(Oc2nccnc2C)cc(C)c1N(C)C
inactive: [10] 101 % of control | [11] 94 % of control | [12] 94 % of control

CCC(C)C(N)C(=O)OCc1ccccc1 (configuration not stated)
inactive: dose: 50.0 mg/kg/injection, schedule: Q01DX009 (ip), vehicle: Klucel (hydroxypropylcellulose) (HPC) 88 % of control | dose: 100.0 mg/kg/injection, schedule: Q01DX009 (ip), vehicle: Klucel (hydroxypropylcellulose) (HPC) 90 % of control | [2] 95 % of control | dose: 200.0 mg/kg/injection, schedule: Q01DX009 (ip), vehicle: Klucel (hydroxypropylcellulose) (HPC) 92 % of control | [4] 92 % of control | [6] 89 % of control

OC(C1CC2CCC1C2)(C1CC2CCC1C2)C1CC2CCC1C2 (configuration not stated)
inactive: [8] 92 % of control | [10] 94 % of control | [13] 97 % of control | [11] 96 % of control | dose: 400.0 mg/kg/injection, schedule: Q01DX009 (ip), vehicle: saline with Tween-80 90 % of control | [12] 97 % of control

CCCCCCCCCCCCc1c2ccccc2cc2ccccc12
inactive: [9] 97 % of control | [14] 98 % of control | [15] 92 % of control

C=C1C2C3CCC(C3)C2C(O)C2C3CCC(C3)C12 (configuration not stated)
inactive: [7] 96 % of control | [8] 93 % of control | [13] 93 % of control

COC1OC(CO)C(N(C)C(C)=O)C1O (configuration not stated)
inactive: [9] 94 % of control | [14] 103 % of control | [15] 97 % of control

Cc1ccc(S(=O)(=O)Nc2ccc(-c3ccc(NS(=O)(=O)c4ccc(C)cc4)cc3)cc2)cc1
inactive: dose: 50.0 mg/kg/injection, schedule: Q04DX002 (ip), vehicle: saline with Tween-80 89 % of control | dose: 100.0 mg/kg/injection, schedule: Q04DX002 (ip), vehicle: saline with Tween-80 95 % of control
